Measured values from patent publication US10703971B2, “Chemiluminescent substrates” (Beckman Coulter, Inc., priority 2016, dated 2020).

Columns and labels:
alkaline phosphatase [1] = assay: Alternative cationic aromatic compounds, Imax on Turner 20/20e luminometer; details: compound used as cationic aromatic compound (CAC) in the formulation
alkaline phosphatase [2] = assay: Stability Test A: luminescence of the AP substrate formulation in a micro-titer plate after injection of AP; format: biochemical; details: 50% more of the named component added to a single lot of APS-5
Experimental: An aliquot (100 μL) of AP substrate formulation was added to a micro-titer plate well (8 replicates for each formulation). The plate was placed in a luminescence plate reader (Luminoskan, Labtech) and to each well was injected 20 μL of AP solution (2 ng/mL). Luminescence signal was read after 30 seconds and intergraded for 2 seconds.

[3] = tested on: Beckman Coulter System Check ALP; assay: Stability of chemiluminescent compounds I in two buffer systems, signal RLU of samples stored at two temperatures; format: biochemical
Experimental: 3.25 mg/L Lucigenin, 10 mg/L Sodium Sulfite. The second was based on the present invention and included AMPD 0.1 M pH 9.70 containing 0.5 g/L STS, 1 g/L PEG (Mw=35,000), 3.25 mg/L Lucigenin, 10 mg/L Sodium Sulfite. Various chemiluminescent compounds I shown below were added to 200 mL aliquots of each buffer at 0.15 g/L.
Each formulation was split into ˜100 mL halves with one kept at ˜5° C. and the other kept at −30° C.
Material was tested periodically over two weeks measuring the relative change in signal RLU between the two storage conditions. Formulations were tested in 96-well plates by comparing samples at stored at two temperatures to reduce the variability associated with enzymes/temperature/day to day. The samples were incubated at 37° C. for 30 minutes on the instrument 20 uL of enzyme (prepared by mixing 1 mL of Beckman Coulter System Check ALP with 640 mL of the Sample Diluent Buffer) were injected into 200 uL of formulation. Kinetic signal was measured at ˜29 seconds after injection of ALP solution. 15-16 data points (wells) were measured for each Buffer/Temperature/Time point (Well A1 is excluded due to variation in injection volume).

Compound: C1=c2cc[n+]3c(c2=CCC1)-c1c2c(cc[n+]1CC3)=CCCC=2
- I max RLU (Turner 20/20e luminometer with filter) (alkaline phosphatase [1]): 500 RLU

Compound: CCCCCCCCCCCCOS(=O)(=O)[O-].[Na+] [SDS, sodium dodecyl sulfate]
- Performance (alkaline phosphatase [2]): 70.5%

Compound: O=S([O-])[O-].[Na+].[Na+] [Sodium Sulfite, sodium sulfite]
- Performance (alkaline phosphatase [2]): 100.1%

Compound: C[n+]1c2ccccc2c(-c2c3ccccc3[n+](C)c3ccc(Cl)cc23)c2cc(Cl)ccc21
- I max RLU (Turner 20/20e luminometer with filter) (alkaline phosphatase [1]): 454 RLU

Compound: C[n+]1ccc2c(c1-c1c3c(cc[n+]1C)=CCCC=3)=CCCC=2
- I max RLU (Turner 20/20e luminometer with filter) (alkaline phosphatase [1]): 41 RLU

Compound: CN1c2ccccc2C(=C(OP(=O)(O)O)Sc2ccccc2)c2ccccc21 [Compound 3]
- Signal Loss at 30° C. (slope, % loss/Day) ([3]; 0.15 g/L compound in AMPD buffer system (AMPD 0.1 M pH 9.70, STS, PEG 35,000, lucigenin, sodium sulfite)): 0.53% loss/Day
- Signal Loss at 30° C. (slope, % loss/Day) ([3]; 0.15 g/L compound in TRIS-Tween buffer system (Tris 0.3 M pH 9.35, SDS, Tween-20, lucigenin, sodium sulfite)): 0.61% loss/Day

Compound: C[n+]1c2ccccc2c(-c2c3ccccc3[n+](C)c3ccc(Cl)cc23)c2ccccc21
- I max RLU (Turner 20/20e luminometer with filter) (alkaline phosphatase [1]): 1600 RLU

Compound: C[n+]1c2ccccc2c(-c2c3ccccc3cc3ccccc23)c2cc(Cl)ccc21
- I max RLU (Turner 20/20e luminometer with filter) (alkaline phosphatase [1]): 1037 RLU
